Experimental data published in ChEMBL document CHEMBL3826911, “Rational design and synthesis of novel anti-prostate cancer agents bearing a 3,5-bis-trifluoromethylphenyl moiety” (Bioorg Med Chem Lett, 2016).

Tests used:
CWR22R = assay: Antiproliferative activity against human 22Rv1 cells assessed as reduction in cell viability after 96 hrs by propidium iodide staining based fluorescence assay; assay type: functional; details: Homo sapiens, 22Rv1, 96 h; read-out: IC50
[1] = Antiproliferative activity against human DU145 cells assessed as reduction in cell viability after 96 hrs by propidium iodide staining based fluorescence assay; assay type: functional, DU-145; details: Homo sapiens, DU-145, 96 h; read-out: IC50
LNCaP = assay: Antiproliferative activity against human LNCAP cells assessed as reduction in cell viability after 96 hrs by propidium iodide staining based fluorescence assay; assay type: functional; details: Homo sapiens, LNCaP, 96 h; read-out: IC50
[2] = Antiproliferative activity against human VCaP cells assessed as reduction in cell viability after 96 hrs by propidium iodide staining based fluorescence assay; assay type: functional; details: Homo sapiens, VCaP, 96 h; read-out: IC50
Androgen receptor = target: T1, Androgen receptor (Homo sapiens, UniProt P10275); assay type: cell-based, GripTite-293
T1 sequence (P10275 whole entry): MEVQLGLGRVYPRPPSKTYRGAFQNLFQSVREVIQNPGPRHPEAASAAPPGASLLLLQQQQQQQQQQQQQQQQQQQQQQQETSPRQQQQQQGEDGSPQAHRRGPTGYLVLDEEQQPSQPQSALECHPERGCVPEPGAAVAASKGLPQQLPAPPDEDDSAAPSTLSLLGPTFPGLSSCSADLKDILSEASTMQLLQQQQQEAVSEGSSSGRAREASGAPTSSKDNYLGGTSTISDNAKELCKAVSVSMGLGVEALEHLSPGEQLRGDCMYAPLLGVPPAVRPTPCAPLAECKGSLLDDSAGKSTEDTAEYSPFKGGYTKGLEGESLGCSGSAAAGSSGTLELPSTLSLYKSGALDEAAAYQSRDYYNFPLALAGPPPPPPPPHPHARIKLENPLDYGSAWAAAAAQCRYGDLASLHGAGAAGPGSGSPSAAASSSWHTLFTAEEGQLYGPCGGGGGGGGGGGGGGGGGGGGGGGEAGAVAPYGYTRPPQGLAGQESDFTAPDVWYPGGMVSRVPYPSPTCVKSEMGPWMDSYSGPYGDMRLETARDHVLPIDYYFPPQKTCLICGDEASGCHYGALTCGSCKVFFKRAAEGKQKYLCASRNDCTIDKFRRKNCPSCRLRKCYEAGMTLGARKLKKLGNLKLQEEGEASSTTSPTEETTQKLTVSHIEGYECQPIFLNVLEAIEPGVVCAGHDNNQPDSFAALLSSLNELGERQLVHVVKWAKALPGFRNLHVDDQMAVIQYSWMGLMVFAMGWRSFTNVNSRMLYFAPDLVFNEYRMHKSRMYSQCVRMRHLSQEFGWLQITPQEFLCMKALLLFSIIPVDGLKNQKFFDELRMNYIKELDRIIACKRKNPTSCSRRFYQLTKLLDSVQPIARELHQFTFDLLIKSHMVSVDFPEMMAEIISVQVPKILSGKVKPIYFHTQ
Description: Antagonist activity at GAL4 DBD-fused androgen receptor LBD (unknown origin) transfected in UAS-bla GripTite 293 cells assessed as inhibition of R1881-induced receptor activation after 16 to 24 hrs by beta-lactamase reporter gene assay

[3] = Half life in human liver microsomes at 3 uM in presence of NADPH by LC-MS/MS analysis; assay type: ADME
HepG2 = assay: Cytotoxicity against human HepG2 cells assessed as cell viability after 72 hrs by MTT assay; assay type: functional, cell-based
[4] = target: T2, Androgen receptor (Homo sapiens) (UniProt P10275); details: GripTite-293, at 10 µM
T2 sequence (whole entry): T1 sequence (P10275 whole entry)

[5] = Intrinsic clearance in human liver microsomes assessed per mg of protein at 3 uM in presence of NADPH by LC-MS/MS analysis; assay type: ADME; details: read-out: CLH
[6] = Protein binding in human plasma by equilibrium dialysis method; assay type: ADME, cell-free; details: read-out: PPB (converted)
Albumin = Albumin (Homo sapiens, UniProt P02768); assay: Binding affinity to human serum albumin at 5 uM by equilibrium dialysis based LC-MS/MS analysis; assay type: ADME; details: read-out: PB (converted)
hERG (KCNH2) = hERG (KCNH2) (Homo sapiens, UniProt Q12809); assay: Inhibition of human ERG transfected in CHO cells assessed as blockade of tail current at 25 uM by patch clamp assay; assay type: cell-based; details: CHO cells transfected with human ERG
Liver microsome = assay: Metabolic stability in human liver microsomes at 3 uM in presence of NADPH by LC-MS/MS analysis; assay type: ADME

Sequence of hERG (KCNH2) (Q12809 whole entry): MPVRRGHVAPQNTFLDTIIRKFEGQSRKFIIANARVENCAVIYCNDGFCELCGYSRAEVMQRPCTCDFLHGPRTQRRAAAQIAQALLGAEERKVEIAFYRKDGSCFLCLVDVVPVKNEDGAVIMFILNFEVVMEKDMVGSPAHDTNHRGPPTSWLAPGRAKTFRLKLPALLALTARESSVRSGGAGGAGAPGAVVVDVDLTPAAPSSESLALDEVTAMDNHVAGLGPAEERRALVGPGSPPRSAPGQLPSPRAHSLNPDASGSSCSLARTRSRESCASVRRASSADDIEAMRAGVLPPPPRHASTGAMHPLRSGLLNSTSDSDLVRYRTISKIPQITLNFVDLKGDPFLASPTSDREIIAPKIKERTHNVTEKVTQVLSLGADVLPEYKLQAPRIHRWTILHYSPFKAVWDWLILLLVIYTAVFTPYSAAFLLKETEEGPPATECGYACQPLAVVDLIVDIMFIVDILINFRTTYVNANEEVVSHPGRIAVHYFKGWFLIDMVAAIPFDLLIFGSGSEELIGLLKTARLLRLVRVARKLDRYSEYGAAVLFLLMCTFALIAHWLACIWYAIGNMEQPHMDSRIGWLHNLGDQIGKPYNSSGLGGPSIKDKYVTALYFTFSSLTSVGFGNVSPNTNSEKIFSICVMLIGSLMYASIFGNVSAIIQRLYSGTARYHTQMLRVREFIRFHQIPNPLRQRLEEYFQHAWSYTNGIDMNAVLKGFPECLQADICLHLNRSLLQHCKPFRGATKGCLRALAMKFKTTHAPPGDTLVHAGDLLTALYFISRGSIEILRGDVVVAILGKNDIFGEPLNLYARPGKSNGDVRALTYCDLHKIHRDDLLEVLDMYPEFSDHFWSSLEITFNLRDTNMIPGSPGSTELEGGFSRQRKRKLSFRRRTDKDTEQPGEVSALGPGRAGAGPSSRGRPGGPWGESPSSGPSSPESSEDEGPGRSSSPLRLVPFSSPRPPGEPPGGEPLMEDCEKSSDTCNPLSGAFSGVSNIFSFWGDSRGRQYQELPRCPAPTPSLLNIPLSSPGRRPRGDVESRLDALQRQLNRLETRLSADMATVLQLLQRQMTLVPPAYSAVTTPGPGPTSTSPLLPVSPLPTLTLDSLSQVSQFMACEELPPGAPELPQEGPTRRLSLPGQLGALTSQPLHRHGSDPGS
Sequence of Albumin (P02768 whole entry): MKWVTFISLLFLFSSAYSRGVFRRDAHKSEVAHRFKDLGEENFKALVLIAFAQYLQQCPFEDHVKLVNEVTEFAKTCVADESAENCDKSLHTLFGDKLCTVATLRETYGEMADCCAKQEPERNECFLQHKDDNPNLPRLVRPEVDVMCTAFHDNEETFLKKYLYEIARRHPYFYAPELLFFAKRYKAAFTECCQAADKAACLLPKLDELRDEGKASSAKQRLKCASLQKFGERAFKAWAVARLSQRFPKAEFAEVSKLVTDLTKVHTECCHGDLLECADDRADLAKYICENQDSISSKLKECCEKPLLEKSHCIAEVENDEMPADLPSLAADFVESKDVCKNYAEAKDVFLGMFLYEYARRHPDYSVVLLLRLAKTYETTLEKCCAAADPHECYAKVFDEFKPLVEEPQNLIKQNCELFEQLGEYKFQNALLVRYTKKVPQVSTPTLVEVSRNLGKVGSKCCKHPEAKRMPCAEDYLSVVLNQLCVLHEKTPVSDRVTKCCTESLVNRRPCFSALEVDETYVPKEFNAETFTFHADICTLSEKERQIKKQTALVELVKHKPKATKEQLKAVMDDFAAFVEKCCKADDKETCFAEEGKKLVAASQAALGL

Work on `CC(O)(CS(=O)(=O)c1cc(C(F)(F)F)cc(C(F)(F)F)c1)C(=O)Nc1ccc([N+](=O)[O-])c(C(F)(F)F)c1` (configuration not stated) yielded an IC50 (CWR22R) of 2150 nM, an IC50 [1] of 5.26 µM and an IC50 (LNCaP) of 2100 nM. The IC50 [2] was 3.3 µM, the IC50 (Androgen receptor) was 3100 nM and the half-life at 3 µM [3] was 567 min. For the same compound, the AC50 (HepG2; HepG2, 72 h) was 9.01 µM, the minimal effective concentration (HepG2; HepG2, 72 h, read-out: MEC) was 3.6 µM and the inhibition [4] was 93%.
In the case of `CC(O)(CSc1cc(C(F)(F)F)cc(C(F)(F)F)c1)C(=O)Nc1ccc([N+](=O)[O-])c(C(F)(F)F)c1` (configuration not stated), the IC50 (CWR22R) is reported as 1500 nM, the IC50 [1] is reported as 2.78 µM and the IC50 (LNCaP) is reported as 1500 nM. The IC50 [2] was 1.53 µM, the IC50 (Androgen receptor) was 710 nM and the Activity (HepG2) was “Dose-dependent effect”. It also gave an inhibition [4] of 90%.
Compound `COc1ccc2c(c1)[C@]13CCCC[C@@H]1[C@H](C2)N(C)CC3` [DEXTROMETHORPHAN] has a half-life at 3 µM [3] of 63.2 min and a microsomal CLint at 3 µM [5] of 21.9 µL/min/mg.
Compound `C[C@](O)(CS(=O)(=O)c1ccc(F)cc1)C(=O)Nc1ccc(C#N)c(C(F)(F)F)c1` [(R)-BICALUTAMIDE] has an IC50 (CWR22R) of 46200 nM, an IC50 [1] of 45.4 µM and an IC50 [2] of 51.6 µM. For the same compound, the half-life at 3 µM [3] was 214 min, the AC50 (HepG2; HepG2, 72 h) was 54.3 µM and the fraction unbound [6] was 0.04.
Work on `C[C@](O)(CS(=O)(=O)c1cc(C(F)(F)F)cc(C(F)(F)F)c1)C(=O)Nc1ccc(C#N)c(C(F)(F)F)c1` yielded an IC50 (CWR22R) of 2500 nM, an IC50 [1] of 6.36 µM and an IC50 (LNCaP) of 1990 nM. The IC50 [2] was 4.11 µM, the Activity (HepG2) was “Dose-dependent effect” and the fraction unbound at 5 µM (Albumin) was 0.001. For the same compound, the inhibition at 25 µM (hERG (KCNH2)) was 29.3% and the Stability (Liver microsome) was “Stable”.
